Experimental data: US10752581B2, “4-((2-hydroxy-3-methoxybenzyl)amino)benzenesulfonamide derivatives as potent and selective inhibitors of 12-lipoxygenase” (Eastern Virginia Medical School, priority 2013, dated 2020)
Entries after “also recorded” stand apart in the source; their conditions may differ.

Experiments:
[1] = molecular target: human epithelial 15-lipoxygenase-2 (15-LOX-2) (Homo sapiens (Human), UniProt O15296); assay: biochemical
[2] = molecular target: human platelet 12-lipoxygenase (12-LOX) (Homo sapiens (Human), UniProt P18054); settings: for IC50: read-out: IC50 [+SD], Table 1, UV-vis cuvette-based assay in triplicate
human platelet 12-lipoxygenase (12-LOX), sequence (P18054 whole entry): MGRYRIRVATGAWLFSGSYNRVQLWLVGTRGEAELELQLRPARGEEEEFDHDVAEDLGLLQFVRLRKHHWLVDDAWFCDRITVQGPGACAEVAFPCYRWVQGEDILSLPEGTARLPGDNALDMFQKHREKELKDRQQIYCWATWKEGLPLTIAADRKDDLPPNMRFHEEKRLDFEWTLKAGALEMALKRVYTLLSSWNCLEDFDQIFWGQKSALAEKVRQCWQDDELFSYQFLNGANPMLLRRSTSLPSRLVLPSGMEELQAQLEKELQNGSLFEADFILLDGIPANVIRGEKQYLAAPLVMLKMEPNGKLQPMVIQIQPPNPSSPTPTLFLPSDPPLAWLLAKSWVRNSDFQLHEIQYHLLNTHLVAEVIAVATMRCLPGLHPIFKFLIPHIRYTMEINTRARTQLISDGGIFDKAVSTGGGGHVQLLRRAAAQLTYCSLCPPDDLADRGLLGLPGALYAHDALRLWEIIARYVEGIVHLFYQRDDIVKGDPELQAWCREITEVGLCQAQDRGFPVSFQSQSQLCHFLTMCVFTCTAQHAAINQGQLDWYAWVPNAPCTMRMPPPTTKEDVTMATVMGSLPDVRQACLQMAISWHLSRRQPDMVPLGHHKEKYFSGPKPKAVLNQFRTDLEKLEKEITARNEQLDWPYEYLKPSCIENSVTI

washed human platelets [3] = assay: PAR4-AP-induced platelet aggregation; type: cell-based
Description: (§1) Blood was centrifuged at 200 g for 13 min at room temperature.

[4] = system: human donor islet preparations; assay: Glucose-stimulated insulin secretion in human islets; type: cell-based; settings: cytokines (TNFα, IL-1β, IFNγ); 3 mM or 18 mM glucose
Description: FIGS. 3D and 3E show results from glucose-stimulated insulin secretion in human donor islet preparations in response to 3 mM glucose (Low) or 18 mM glucose (High) for control (untreated) islets. […] FIGS. 3D and 3E represent results obtained in different human donor islet preparations.

[5] = Microsomal stability (rat); type: in vitro ADME
[6] = PBS buffer (pH 7.4) solubility; type: physicochemical
mouse plasma stability = type: in vitro ADME
[7] = Stability in aqueous buffers and glutathione; type: physicochemical
washed human platelets [8] = assay: PAR4-AP-induced calcium mobilization; type: cell-based; settings: 200 μM PAR4-AP; increasing concentrations
Description: as §1

[9] = Parallel Artificial Membrane Permeability Assay (PAMPA); settings: PAMPA at pH 7.4
12-LOX = 12-LOX (Homo sapiens (Human), UniProt P18054)
12-LOX, sequence (P18054 whole entry): as above
Description: Reactions were initiated by adding substrate (range 1-5 μM AA) to approximately 30 nM 12-LOX in a constantly stirring 2 mL cuvette containing 25 mM HEPES buffer (pH 7.5), in the presence of 0.01% Triton X-100. […] Kinetic data were obtained by recording initial enzymatic rates, at varied substrate and inhibitor concentrations, and subsequently fitted to the Henri-Michaelis-Menten equation, using KaleidaGraph (Synergy) to determine the microscopic rate constants, Vmax (μmol/min/mg) and Vmax/KM (μmol/min/mg/μM).

Mouse beta cells (BTC3) = assay: Mouse Beta cells (12-HETE Inhibition) Assay; settings: AA/IONO
Description: After four hours, the media was removed and spun at 1000 RPM for 5 minutes. The cleared supernatant was stored at −80° C. prior to analysis.

human epithelial 15-lipoxygenase-2 (15-LOX-2), sequence (O15296 whole entry): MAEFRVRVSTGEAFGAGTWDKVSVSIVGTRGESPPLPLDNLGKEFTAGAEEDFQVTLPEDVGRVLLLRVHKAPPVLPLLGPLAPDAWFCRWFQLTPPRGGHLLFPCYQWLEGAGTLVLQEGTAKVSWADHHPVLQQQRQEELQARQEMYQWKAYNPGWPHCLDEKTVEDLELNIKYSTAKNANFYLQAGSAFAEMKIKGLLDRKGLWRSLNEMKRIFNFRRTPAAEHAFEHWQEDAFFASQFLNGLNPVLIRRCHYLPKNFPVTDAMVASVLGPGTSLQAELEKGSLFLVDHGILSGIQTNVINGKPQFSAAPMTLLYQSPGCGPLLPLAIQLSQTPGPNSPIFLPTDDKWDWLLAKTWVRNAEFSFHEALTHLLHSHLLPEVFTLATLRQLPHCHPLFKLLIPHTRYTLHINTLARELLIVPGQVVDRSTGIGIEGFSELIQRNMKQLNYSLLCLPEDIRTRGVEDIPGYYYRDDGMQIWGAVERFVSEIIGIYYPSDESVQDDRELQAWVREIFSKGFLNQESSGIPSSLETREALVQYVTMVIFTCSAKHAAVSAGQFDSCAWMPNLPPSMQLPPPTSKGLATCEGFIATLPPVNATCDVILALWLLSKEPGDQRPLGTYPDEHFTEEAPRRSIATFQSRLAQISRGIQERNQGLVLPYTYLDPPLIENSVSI

With COc1cccc(CNc2ccc(S(=O)(=O)Nc3nccs3)cc2)c1O [Compound 1, 4-(2-hydroxy-3-methoxybenzylamino)-N-(thiazol-2-yl)benzenesulfonamide] the IC50 [1] was > 40 µM.
With O=S(=O)(Nc1nccs1)c1ccc(NCc2ccccc2)cc1 [Compound 8, 4-(benzylamino)-N-(thiazol-2-yl)benzene sulfonamide] the “12-LOX inhibitory activity (SAR, in words)” value (“12-LOX inhibitory activity” for short) [2] was “complete loss of activity” and the IC50 [2] was > 40 µM.
In the case of O=S(=O)(Nc1nccs1)c1ccc(NCc2ccccc2O)cc1 [Compound 9, 4-(2-hydroxybenzylamino)-N-(thiazol-2-yl)benzene sulfonamide], the “12-LOX inhibitory activity” value [2] is reported as “complete loss of activity” and the IC50 [2] is reported as > 40 µM.
In the case of Nc1ccccc1CNc1ccc(S(=O)(=O)Nc2nccs2)cc1 [Compound 13, 4-(2-aminobenzylamino)-N-(thiazol-2-yl)benzene sulfonamide], the “12-LOX inhibitory activity” value [2] is reported as “negated all 12-LOX inhibitory activity” and the IC50 [2] is reported as > 40 µM.
For O=S(=O)(Nc1nccs1)c1ccc(NCc2cccc(O)c2)cc1 [Compound 14, 4-(3-hydroxybenzylamino)-N-(thiazol-2-yl)benzene sulfonamide], the IC50 [2] was > 40 µM.
For COc1cccc(CNc2ccc(S(=O)(=O)Nc3nc4ccccc4o3)cc2)c1O [Compound 36, N-(benzo[d]oxazol-2-yl)-4-((2-hydroxy-3-methoxybenzyl)amino)benzenesulfonamide], the “PAR4-AP induced platelet aggregation (in words)” value (washed human platelets [3]) was “Comparable results”, the “glucose-stimulated insulin secretion with cytokines” value [4] was “Uncoupling of glucose-stimulated insulin secretion by cytokines is inhibited” and the half-life ([5]; microsomes, rat, in the presence of NADPH, read-out: Microsomal stability T1/2) was > 30 min. For the same compound, the “microsomal degradation without NADPH” value ([5]; without NADPH present over a 1 h period) was “^bRepresents the stability in the presence of NADPH. 35 and 36 showed no degradation without NADPH present over a 1 h period”, the solubility ([6]; PBS buffer, pH 7.4, aqueous buffer) was > 60 µg/mL and the “improvement of solubility in buffer” value ([6]; relative to ML355) was > 10 fold. The “mouse plasma stability remaining at 2 h (%)” value (mouse plasma stability) was 100%, the “PBS buffer (pH 7.4) stability at 48 h (%)” value [7] was 100% and the “PAR4-AP-induced calcium mobilization (in words)” value (washed human platelets [8]) was “Calcium mobilization was decreased; also recorded: Comparable results”. For the same compound, the “permeability (1 × 10^−6 cm/s)” value [9] was 168^c 1 × 10^−6 cm/s, the mode of inhibition (12-LOX) was “mixed inhibitors” and the “inhibition of 12-HETE in mouse beta cells (in words)” value (Mouse beta cells (BTC3)) was “Comparable results”.
